The text below walks through data of PMC9739815, “Akt/mTOR Targeting Activity of Resveratrol Derivatives in Non-Small Lung Cancer” (Molecules, 2022).

Series [1] has as its system A549 cells. Briefly: MTT cell viability assay, A549 cells. The class given is cell-based. The note with it: Homo sapiens, 24 h, 0–200 µM, read-out: IC50 ± SEM of NSCLC cells, A549. The procedure:
(§1) NSCLC cells were cultured overnight and treated with various concentrations (0–200 µM) of resveratrol derivatives (RD1-RD5) and resveratrol for 24 h, and then cell viability was analyzed by the 3-(4, 5-dimethylthiazolyl-2)-2, 5-diphenyltetrazolium bromide (MTT) assay to evaluate the percentage of cell viability. All of the data were calculated on the basis of the results of three replicated samples. […] The difference of the structure at C-4 was that the hydroxyl group of RD2 was modified to the methoxy group of RD3 and at C-3, the methoxy group of RD2 was changed to the hydroxyl group of RD3. […] Furthermore, resveratrol decreased cell viability in NSCLC cells (A549, H23, and H460) with the IC50 at more than 200 µM which was the same RD3 (Figure 2a–d). This different action on cancer cells as a result of chemical structure modification has provided an insight for the structure–activity relationship that may facilitate the further development of the potent compound from the lead structure of resveratrol derivatives. Cell viability was investigated by MTT colorimetric assay. All cell lines were cultured at the density of 1 × 10^4 cells per well in a 96-well tissue culture plate and incubated in an incubator. After that, cells were treated with various concentrations of RD1-RD5 for 24 h at 37 °C and analyzed by the MTT assay according to the manufacturer’s protocol (Sigma Chemical, St. Louis, MO, USA). In calculating the cell viability by a microplate reader (Anthros, Durham, NC, USA), the measured absorbance of treated cells were divided by the value of untreated cells and are reported as a percentage.

In the next series the test system is H460 cells. Briefly: MTT cell viability assay, H460 cells. The class given is cell-based. The settings on record: Homo sapiens, NCI-H460, 24 h, 0–200 µM, read-out: IC50 ± SEM of NSCLC cells, H460. The protocol:
as §1
A general note: Formazan colour is commonly taken as a measure of viable cells.

The next series relates to DP cells. Briefly: MTT cell viability assay, normal dermal papilla (DP) cells. The class given is cell-based. The note with it: 24 h; for effect on cell viability percentages in DP cells: normal human dermal papilla cells; for IC50: Human dermal papilla cell, 0–200 µM, read-out: IC50 ± SEM of DP cells. The protocol:
To confirm the selective cytotoxicity of resveratrol derivatives (RD2 and RD3) in cancer cells, resveratrol derivatives (RD2 and RD3) and resveratrol were determined for the cytotoxic profile in normal human cells, dermal papilla (DP).
Cell viability was investigated by MTT colorimetric assay. All cell lines were cultured at the density of 1 × 10^4 cells per well in a 96-well tissue culture plate and incubated in an incubator. After that, cells were treated with various concentrations of RD1-RD5 for 24 h at 37 °C and analyzed by the MTT assay according to the manufacturer’s protocol (Sigma Chemical, St. Louis, MO, USA). In calculating the cell viability by a microplate reader (Anthros, Durham, NC, USA), the measured absorbance of treated cells were divided by the value of untreated cells and are reported as a percentage.

Series [2] relates to A549 cells. The series can be described thus: Hoechst 33342/PI nuclear staining apoptosis assay, A549 cells. The class given is cell-based, human. The note with it: 24 h. The protocol: Apoptosis is considered as an important mechanism of action of anti-cancer drugs. The important characteristics of apoptotic cells include the nuclear morphological changes, chromatin condensation, and DNA fragmentation. Hoechst 33342 and propidium iodide (PI) double staining was utilized to determine the mode of cell death by monitoring the nucleus morphology of apoptotic cells as well as their membrane integrity. Cells were seeded in a 96-well plate at the density of 1 × 10^4 cells/well and treated with various concentrations of RD2 and RD3 (10–200 μM) for 24 h. The cells were co-stained with Hoechst 33342 and PI. […] The red fluorescence of PI indicated a late apoptosis cell and necrotic cells.
This method was applied to define apoptotic and necrotic cell death by using nuclear staining with Hoechst 33342. The cells were seeded on 96-well plates at the density 1 × 10^4 cells per well in 96-well plates and incubated overnight. The cells were treated with various concentrations of RD1-RD5 and incubated for 24 h at 37 °C. Afterward, the cells were incubated with Hoechst 33342 (10 μg/mL) / PI (5 μg/mL) solution for 30 min at 37 °C. Then, they were visualized and imaged under a fluorescence microscope (Olympus DP70, Melville, NY, USA). Results are reported as a percentage of apoptotic cells.

Another series deals with p-Akt/Akt in H23 cells. Briefly: Western blot of p-Akt/Akt, H23 cells. The class given is cell-based, human. The note with it: 12 h. The procedure: (§2) NSCLC cells (A549 and H23) were treated with RD2 and RD3 (10–100 μM) for 12 h. After which, all cells were collected and the expression levels of Akt, p-Akt, mTOR, and p-mTOR were investigated by Western blot analysis (Figure 5a, Figure 6a, Figure 7a and Figure 8a). […] Immunofluorescence staining of Akt, p-Akt, mTOR, and p-mTOR was performed in RD2 and RD3 treated cells. The results further confirm the effect of RD2 and RD3 on the Akt/mTOR pathway.
Western blotting was used to detect the presence of specific protein. Cells were seed at a density of 4 × 10^5 cells/well in 6 well plates overnight. Cells were treated with various concentrations RD1-RD5 were treated for 12 h. After treatment, the apoptosis cells were collected by centrifuging media with 1500 rpm for 5 min and aspirating supernatants. Then, cells were washed with cold 1× PBS and incubated with 1X RIPPA 40 µL containing 10× RIPA buffer 100 µL, protease inhibitors (PI) 100 µL, PMSF 10 µL, and Triton × 10 µL for 30 min on ice. BCA protein assay kit from Pierce Biotechnology (Rockford, IL, USA) analyzed protein concentrations. The extracted proteins were separated by 7.5–10% sodium dodecyl sulfate polyacrylamide gel electrophoresis (SDS-PAGE) and transferred to polyvinylidene difluoride membrane (PVDF). Then, the membranes were blocked with 5% non-fat milk powder for 2 h. After that, they were incubated with primary antibody at 4 °C Akt (#9272), phosphorylated Akt (#4060), mTOR (#2983S), and p-mTOR (#5536S) overnight. The membranes were washed with Tris-buffered saline/Tween 20 3 times and incubated with secondary antibodies for 2 h. Finally, the protein bands were detected using chemiluminescence substrate and exposed by Chemiluminescent ImageQuant LAS4000. Protein bands were analyzed using Image J software.
(Immunoblotting shows a protein as a band on a membrane.)

The test system of another series is p-mTOR in H23 cells. Briefly: Immunofluorescence staining of p-mTOR, H23 cells. The class given is cell-based, human. The note with it: 12 h, RD2 effect at 50–100 μM. The protocol: as §2
Cells were seeded at a density of 1 × 10^4 cells/well in 6-well plates overnight. Cells were treated with various concentrations resveratrol derivatives ([…]) and were treated for 12 h. Then, they were fixed with 4% paraformaldehyde in PBS for 15 min, permeabilized for 5 min with 0.5% Triton-X, and blocked with 0.1% Triton-X in 10% FBD in PBS for 1 h at room temperature. Cells were added to the primary antibody Akt (#9272), phosphorylated Akt (#4060), mTOR (#2983S), and p-mTOR (#5536S). Then, they were incubated at 4 °C overnight. After that, they were incubated with secondary antibody for 1 h and stained with Hoechst 33342 for 30 min at room temperature in a dark place. The images were visualized under a fluorescent microscope (Olympus DP70, Melville, NY, USA) and analyzed by The ImageJ software.

Take `COc1cc(CCc2ccc(O)c(OC)c2)ccc1O` [RD2, 4,4′-(ethane-1,2-diyl)bis(2-methoxyphenol)]: the IC50 (commonly the concentration at which inhibition is half-maximal) in the series on A549 cells [1] was 109 ± 10.8 µM; with H460 cells it was 138 ± 25.6 µM; in the series with DP cells, more than 200 µM. Further, the “effect on cell viability percentages in DP cells” value in the series with DP cells is “did not significantly affect”. The figures for the apoptotic ratio in the series on A549 cells [2] (10 μM), in the series with A549 cells [2] (100 μM) and in the series with A549 cells [2] (200 μM) were 23.25%, 61.26% and 86.30%, respectively. The “p-Akt/Akt protein expression levels” value is “significant decrease” in the series on p-Akt/Akt in H23 cells (50 μM, vs untreated control) and “significant decrease” in the series with p-Akt/Akt in H23 cells (100 μM, vs untreated control). Further, the p-mTOR signal intensity result in the series with p-mTOR in H23 cells is recorded as “dramatic decrease”.
On to `COc1ccc(CCc2ccc(O)c(OC)c2)cc1O` [RD3, 4-(3-hydroxy-4-methoxyphenethyl)-2-methoxyphenol], for which the IC50 in the series with A549 cells [1], in the series on H460 cells and in the series with DP cells was more than 200 µM in each case. Moreover, in the series with DP cells, the “effect on cell viability percentages in DP cells” value is “did not significantly affect”. For the same molecule, the apoptotic ratio in the series on A549 cells [2] (200 μM) came out at 13.25%. The “p-Akt/Akt protein expression levels” value in the series with p-Akt/Akt in H23 cells (10–100 μM) is “increased”. For the same molecule, the p-mTOR signal intensity result with p-mTOR in H23 cells was “only minimally affected”.
